Test results as given in publication PMC7714403 (JCI Insight, 2020).
Where two headings read alike, the source gives them in different places.

Assays:
[1] = molecular target: ACK1 (Homo sapiens, UniProt Q07912); assay: KiNativ in situ kinase profiling, OCI-AML3 cells; type: cell-based
Description: (§1) Samples were analyzed by KiNativ in situ kinase profiling by ActivX Biosciences.

[2] = molecular target: T1, GCK (Homo sapiens, UniProt Q12851); assay: KiNativ in situ kinase profiling, OCI-AML3 cells; type: cell-based
T1 sequence (Q12851 1-820): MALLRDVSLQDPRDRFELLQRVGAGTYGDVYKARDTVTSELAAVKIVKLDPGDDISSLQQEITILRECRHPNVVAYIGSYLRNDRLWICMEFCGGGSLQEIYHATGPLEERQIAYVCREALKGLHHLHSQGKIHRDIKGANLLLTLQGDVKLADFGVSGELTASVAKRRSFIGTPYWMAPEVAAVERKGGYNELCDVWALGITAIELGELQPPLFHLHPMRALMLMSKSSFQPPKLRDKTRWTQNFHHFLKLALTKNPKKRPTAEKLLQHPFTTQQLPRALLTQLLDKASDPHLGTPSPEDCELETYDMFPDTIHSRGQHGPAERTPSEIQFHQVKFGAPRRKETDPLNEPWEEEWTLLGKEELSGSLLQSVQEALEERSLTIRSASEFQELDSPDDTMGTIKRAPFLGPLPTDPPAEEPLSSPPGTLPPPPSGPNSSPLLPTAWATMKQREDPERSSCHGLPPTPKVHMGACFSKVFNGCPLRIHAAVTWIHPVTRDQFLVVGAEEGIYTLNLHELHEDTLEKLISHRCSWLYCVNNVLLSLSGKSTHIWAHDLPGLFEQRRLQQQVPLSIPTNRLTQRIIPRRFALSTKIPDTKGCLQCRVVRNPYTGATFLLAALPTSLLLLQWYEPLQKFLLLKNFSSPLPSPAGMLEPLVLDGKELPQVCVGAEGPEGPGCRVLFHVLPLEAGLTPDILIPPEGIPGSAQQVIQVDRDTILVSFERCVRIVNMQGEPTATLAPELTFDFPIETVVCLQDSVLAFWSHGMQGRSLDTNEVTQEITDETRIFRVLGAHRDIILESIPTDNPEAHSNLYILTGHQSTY
Description: as §1

[3] = system: CaMK2a, CaMK2b, CaMK2d, CaMK2g; assay: KiNativ, OCI cells live cell; type: cell-based, human; settings: labeling site Lys2, peptide DLKPENLLLASK
[4] = molecular target: eEF2K (Homo sapiens, UniProt O00418); assay: KiNativ, OCI cells live cell; type: cell-based; settings: 2 h, labeling site ATP, peptide […]
Chain of eEF2K (O00418 whole entry): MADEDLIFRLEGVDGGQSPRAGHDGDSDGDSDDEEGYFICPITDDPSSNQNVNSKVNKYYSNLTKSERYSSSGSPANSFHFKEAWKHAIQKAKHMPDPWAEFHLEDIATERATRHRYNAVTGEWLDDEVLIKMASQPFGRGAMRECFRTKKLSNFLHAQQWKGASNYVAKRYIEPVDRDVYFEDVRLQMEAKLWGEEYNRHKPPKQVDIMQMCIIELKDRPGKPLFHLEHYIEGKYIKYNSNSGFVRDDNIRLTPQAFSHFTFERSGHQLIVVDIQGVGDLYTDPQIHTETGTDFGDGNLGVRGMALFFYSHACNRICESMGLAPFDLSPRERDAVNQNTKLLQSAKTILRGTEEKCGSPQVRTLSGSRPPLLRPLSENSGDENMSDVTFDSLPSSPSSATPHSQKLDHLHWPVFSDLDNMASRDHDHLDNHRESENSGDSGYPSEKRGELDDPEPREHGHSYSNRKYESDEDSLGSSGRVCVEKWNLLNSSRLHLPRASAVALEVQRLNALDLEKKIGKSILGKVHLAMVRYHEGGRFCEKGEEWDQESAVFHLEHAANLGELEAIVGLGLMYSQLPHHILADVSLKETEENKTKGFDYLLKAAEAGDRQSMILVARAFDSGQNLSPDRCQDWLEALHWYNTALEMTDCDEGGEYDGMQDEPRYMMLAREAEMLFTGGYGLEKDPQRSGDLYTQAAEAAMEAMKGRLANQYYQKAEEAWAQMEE

[5] = molecular target: EphB3 (Homo sapiens, UniProt P54753); assay: KiNativ, OCI cells live cell; type: cell-based; settings: 2 h, labeling site Activation Loop, peptide […]
[6] = molecular target: IRAK1 (Homo sapiens, UniProt P51617); assay: KiNativ, OCI cells live cell; type: cell-based; settings: 2 h, labeling site Lys2, peptide […]
Chain of IRAK1 (P51617 whole entry, the tested form may be a part): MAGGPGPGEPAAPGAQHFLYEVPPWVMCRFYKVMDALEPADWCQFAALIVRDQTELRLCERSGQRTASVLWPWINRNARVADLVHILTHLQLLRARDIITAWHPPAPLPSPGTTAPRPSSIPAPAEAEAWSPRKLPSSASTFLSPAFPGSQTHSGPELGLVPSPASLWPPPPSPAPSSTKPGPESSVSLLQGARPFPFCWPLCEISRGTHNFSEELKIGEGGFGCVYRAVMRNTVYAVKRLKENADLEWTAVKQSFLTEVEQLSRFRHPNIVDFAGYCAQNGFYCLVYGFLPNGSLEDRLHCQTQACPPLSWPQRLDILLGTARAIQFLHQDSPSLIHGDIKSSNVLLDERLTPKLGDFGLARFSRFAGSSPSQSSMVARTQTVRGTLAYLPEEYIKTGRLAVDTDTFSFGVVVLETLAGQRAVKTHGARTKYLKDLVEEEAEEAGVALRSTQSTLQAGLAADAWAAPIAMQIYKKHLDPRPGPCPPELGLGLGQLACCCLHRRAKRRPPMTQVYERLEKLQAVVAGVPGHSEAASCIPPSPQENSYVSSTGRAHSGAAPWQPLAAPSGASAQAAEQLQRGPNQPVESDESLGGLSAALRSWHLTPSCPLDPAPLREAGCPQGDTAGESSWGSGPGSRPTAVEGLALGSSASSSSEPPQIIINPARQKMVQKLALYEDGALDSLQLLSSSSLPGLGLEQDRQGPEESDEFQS

[7] = molecular target: T2, JAK3 domain2 (Homo sapiens, UniProt P52333); assay: KiNativ, OCI cells live cell; type: cell-based; settings: 2 h, labeling site Lys1, peptide […]
T2 construct: JAK3 domain2

[8] = molecular target: T3, MAP2K3 (Homo sapiens, UniProt P46734); assay: KiNativ, OCI cells live cell; type: cell-based; settings: 2 h
T3 sequence (P46734 1-347): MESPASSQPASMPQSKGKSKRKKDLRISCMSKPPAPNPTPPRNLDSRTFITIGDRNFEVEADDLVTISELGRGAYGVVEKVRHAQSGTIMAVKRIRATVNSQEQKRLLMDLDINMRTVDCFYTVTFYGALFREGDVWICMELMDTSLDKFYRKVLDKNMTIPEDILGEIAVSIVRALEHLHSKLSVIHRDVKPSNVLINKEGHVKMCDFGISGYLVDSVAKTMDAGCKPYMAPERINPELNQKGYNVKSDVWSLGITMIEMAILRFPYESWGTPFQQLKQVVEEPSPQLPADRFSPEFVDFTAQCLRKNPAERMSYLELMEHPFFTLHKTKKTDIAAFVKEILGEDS

[9] = system: MARK1, MARK2; assay: KiNativ, OCI cells live cell; type: cell-based, human; settings: labeling site Lys1, peptide EVAVKIIDK
[10] = molecular target: T4, MLKL (Homo sapiens, UniProt Q8NB16); assay: KiNativ, OCI cells live cell; type: cell-based; settings: 2 h, labeling site Lys1, peptide […]
T4 sequence (Q8NB16 1-471): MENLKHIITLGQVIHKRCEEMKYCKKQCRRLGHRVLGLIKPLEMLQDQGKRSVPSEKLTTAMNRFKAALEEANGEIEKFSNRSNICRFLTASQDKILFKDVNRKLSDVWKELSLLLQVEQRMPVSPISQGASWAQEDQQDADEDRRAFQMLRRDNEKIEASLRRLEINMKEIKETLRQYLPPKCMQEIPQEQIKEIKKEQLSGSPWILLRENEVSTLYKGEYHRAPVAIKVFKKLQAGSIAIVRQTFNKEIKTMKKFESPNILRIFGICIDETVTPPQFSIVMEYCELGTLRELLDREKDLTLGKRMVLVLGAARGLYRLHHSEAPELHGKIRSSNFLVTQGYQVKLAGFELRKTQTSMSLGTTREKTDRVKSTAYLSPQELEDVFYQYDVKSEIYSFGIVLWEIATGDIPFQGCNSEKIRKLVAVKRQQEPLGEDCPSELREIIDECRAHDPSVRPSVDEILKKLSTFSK

[11] = system: MSK1 domain1, MSK2 domain1; assay: KiNativ, OCI cells live cell; type: cell-based, human; settings: labeling site ATP Loop, peptide VLGTGAYGKVFLVR
[12] = molecular target: NEK4 (Homo sapiens, UniProt P51957); assay: KiNativ, OCI cells live cell; type: cell-based; settings: 2 h, labeling site Lys2, peptide […]
Chain of NEK4 (P51957 whole entry): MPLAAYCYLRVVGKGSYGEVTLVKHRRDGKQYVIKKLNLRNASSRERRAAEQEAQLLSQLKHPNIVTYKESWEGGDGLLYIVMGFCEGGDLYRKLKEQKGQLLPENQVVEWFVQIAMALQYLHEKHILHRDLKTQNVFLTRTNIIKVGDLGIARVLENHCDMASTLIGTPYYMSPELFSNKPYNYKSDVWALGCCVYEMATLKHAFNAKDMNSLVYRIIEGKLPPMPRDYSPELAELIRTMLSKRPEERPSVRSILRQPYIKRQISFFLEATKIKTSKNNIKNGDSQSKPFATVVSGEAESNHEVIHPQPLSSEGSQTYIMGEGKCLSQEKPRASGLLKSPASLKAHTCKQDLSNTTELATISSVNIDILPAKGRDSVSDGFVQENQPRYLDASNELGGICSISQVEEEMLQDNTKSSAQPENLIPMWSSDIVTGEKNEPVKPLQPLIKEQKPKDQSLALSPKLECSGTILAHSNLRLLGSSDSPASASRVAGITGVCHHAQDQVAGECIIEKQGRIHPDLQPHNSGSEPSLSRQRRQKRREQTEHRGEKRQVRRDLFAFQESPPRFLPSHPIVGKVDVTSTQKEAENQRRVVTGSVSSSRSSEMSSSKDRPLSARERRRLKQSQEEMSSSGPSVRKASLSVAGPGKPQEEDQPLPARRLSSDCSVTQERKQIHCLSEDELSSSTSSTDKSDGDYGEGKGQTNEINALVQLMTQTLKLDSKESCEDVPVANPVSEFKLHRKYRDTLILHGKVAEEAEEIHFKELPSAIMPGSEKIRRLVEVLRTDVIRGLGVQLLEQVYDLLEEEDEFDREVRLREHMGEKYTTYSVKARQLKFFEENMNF

[13] = molecular target: PIK3C3 (Homo sapiens, UniProt Q8NEB9); assay: KiNativ, OCI cells live cell; type: cell-based; settings: 2 h, labeling site ATP
Chain of PIK3C3 (Q8NEB9 whole entry): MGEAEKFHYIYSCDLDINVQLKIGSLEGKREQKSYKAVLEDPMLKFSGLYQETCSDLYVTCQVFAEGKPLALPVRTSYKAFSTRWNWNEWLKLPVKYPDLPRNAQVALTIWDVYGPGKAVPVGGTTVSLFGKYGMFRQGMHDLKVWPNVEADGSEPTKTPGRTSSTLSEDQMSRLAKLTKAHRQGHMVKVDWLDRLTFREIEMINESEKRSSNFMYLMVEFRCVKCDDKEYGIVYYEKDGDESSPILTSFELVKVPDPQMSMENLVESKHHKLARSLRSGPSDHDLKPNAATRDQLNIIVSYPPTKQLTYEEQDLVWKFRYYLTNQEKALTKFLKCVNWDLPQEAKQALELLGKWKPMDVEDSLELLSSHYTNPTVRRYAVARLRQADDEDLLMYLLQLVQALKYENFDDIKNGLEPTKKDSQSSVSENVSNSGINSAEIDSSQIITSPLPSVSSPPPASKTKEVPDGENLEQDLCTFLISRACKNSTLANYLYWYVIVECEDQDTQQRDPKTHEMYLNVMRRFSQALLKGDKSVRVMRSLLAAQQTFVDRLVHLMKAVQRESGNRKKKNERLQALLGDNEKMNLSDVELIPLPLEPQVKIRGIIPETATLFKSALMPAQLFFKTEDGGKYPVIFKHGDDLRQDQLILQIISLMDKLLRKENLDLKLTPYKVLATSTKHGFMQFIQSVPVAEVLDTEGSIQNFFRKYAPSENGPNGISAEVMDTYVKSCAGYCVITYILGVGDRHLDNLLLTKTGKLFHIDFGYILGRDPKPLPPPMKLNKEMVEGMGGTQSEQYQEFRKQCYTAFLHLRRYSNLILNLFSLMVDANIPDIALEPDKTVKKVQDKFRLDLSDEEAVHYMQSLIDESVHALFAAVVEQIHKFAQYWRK

[14] = system: PKCa, PKCg; assay: KiNativ, OCI cells live cell; type: cell-based, human; settings: labeling site Other, peptide NLIPMDPNGLSDPYVKLK
[15] = molecular target: TAK1 (Homo sapiens, UniProt O43318); assay: KiNativ, OCI cells live cell; type: cell-based; settings: 2 h, labeling site Lys2, peptide […]
Chain of TAK1 (O43318 whole entry): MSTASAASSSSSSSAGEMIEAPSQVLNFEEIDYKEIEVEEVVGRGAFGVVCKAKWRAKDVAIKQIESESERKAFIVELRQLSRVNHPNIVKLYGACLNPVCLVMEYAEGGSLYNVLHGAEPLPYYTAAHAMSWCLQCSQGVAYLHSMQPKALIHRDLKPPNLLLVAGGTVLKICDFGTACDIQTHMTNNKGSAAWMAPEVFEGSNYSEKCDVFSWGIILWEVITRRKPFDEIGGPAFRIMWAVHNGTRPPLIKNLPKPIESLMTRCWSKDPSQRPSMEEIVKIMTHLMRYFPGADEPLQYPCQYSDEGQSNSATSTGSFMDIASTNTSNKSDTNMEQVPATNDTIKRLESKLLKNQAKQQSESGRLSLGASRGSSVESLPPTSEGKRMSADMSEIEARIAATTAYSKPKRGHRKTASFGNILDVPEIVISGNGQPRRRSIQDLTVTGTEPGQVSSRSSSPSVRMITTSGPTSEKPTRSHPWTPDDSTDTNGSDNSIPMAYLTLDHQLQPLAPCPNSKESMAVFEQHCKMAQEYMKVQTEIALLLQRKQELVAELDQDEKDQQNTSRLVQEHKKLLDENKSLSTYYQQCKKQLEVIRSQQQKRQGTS

Chain of ACK1 (Q07912 whole entry): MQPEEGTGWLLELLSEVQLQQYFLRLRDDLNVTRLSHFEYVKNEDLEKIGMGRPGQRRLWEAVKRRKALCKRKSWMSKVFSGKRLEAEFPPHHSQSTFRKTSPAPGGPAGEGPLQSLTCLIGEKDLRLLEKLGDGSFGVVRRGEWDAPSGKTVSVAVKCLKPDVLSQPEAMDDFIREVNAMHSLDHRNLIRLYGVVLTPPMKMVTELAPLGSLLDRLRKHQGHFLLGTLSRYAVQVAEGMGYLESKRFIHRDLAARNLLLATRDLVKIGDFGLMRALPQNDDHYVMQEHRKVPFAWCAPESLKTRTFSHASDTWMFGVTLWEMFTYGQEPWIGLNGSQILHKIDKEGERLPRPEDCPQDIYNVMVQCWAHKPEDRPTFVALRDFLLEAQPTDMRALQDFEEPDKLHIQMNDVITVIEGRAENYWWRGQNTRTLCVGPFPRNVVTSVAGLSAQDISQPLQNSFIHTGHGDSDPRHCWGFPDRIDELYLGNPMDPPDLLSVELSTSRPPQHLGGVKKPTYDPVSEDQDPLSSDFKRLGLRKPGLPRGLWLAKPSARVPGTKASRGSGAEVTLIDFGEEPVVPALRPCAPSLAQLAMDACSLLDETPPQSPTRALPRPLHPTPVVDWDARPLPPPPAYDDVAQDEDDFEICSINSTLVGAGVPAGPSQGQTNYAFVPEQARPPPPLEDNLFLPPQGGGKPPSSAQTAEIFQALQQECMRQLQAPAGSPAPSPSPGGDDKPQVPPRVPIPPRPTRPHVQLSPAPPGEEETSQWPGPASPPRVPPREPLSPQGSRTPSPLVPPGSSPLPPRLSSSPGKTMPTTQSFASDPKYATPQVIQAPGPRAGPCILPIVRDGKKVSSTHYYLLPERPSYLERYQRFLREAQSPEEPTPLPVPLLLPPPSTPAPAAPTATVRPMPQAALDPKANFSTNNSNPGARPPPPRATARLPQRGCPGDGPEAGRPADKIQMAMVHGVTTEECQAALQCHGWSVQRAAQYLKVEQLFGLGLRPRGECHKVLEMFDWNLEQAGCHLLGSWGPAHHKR

`CN1CCN(Cc2ccc(Nc3ncc(Cl)c(Nc4ccccc4S(=O)(=O)N(C)C)n3)cc2)CC1` [TP-0903] gave an inhibition at 0.1 µM ([1]; OCI-AML-3, 2 h, OCI cells, live cell, labeling site Activation Loop, peptide KVPFAWCAPESLK, read-out: Inhibition) of 81.6%, an inhibition at 0.1 µM ([1]; OCI-AML-3, 2 h, OCI cells, live cell, labeling site Lys1, peptide TVSVAVKCLKPDVLSQPEAMDDFIR, read-out: Inhibition) of 86.9% and an inhibition at 0.1 µM ([1]; OCI-AML-3, OCI-AML3 cells, 100 nM, read-out: Inhibition of ACK1) of 87%. For the same compound, the inhibition at 0.1 µM ([2]; OCI-AML-3, 2 h, OCI cells, live cell, labeling site Lys1, peptide DTVTSELAAVKIVK, read-out: Inhibition) was 45.6%, the inhibition at 0.1 µM ([2]; OCI-AML-3, 2 h, OCI cells, live cell, labeling site Lys2, peptide DIKGANLLLTLQGDVK, read-out: Inhibition) was 42.3% and the inhibition at 0.1 µM ([2]; OCI-AML-3, OCI-AML3 cells, 100 nM, read-out: Inhibition of GCK) was 46%. It also gave an Inhibition [3] of 17.4%, an inhibition at 0.1 µM [4] of 12.4% and an inhibition at 0.1 µM [5] of 17.1%. It also gave an inhibition at 0.1 µM [6] of 62.8%, an inhibition at 0.1 µM [7] of 31% and an inhibition at 0.1 µM ([8]; labeling site Activation Loop, peptide MCDFGISGYLVDSVAKTMDAGCKPYMAPER) of 6.8%. The inhibition at 0.1 µM ([8]; labeling site Lys1, peptide HAQSGTIMAVKR) was 8%, the inhibition at 0.1 µM ([8]; labeling site Lys2, peptide DVKPSNVLINK) was 8.2% and the Inhibition [9] was 26.6%. For the same compound, the inhibition at 0.1 µM [10] was -29.6%, the Inhibition [11] was 11.0% and the inhibition at 0.1 µM [12] was -12.3%. It also gave an inhibition at 0.1 µM ([13]; peptide TEDGGKYPVIFKHGDDLR) of -16.8%, an inhibition at 0.1 µM ([13]; peptide TEDGGKYPVIFKHGDDLRQDQLILQIISLMDK) of -18.2% and an Inhibition [14] of -15.0%. For the same compound, the inhibition at 0.1 µM [15] was -11.5%.
